The test system of one data set is RSV A long virus strain. Type of data set: cell-based. Conditions: RSV A long virus strain, HEp-2 cells, plaque reduction, 1 day; read-out: IC50. The procedure:
In this embodiment, an RSV-A long virus strain was used as an infection virus in the present disclosure. The anti-RSV activity of the synthesized polypeptide was determined through CPE detection.
The inhibitory activity of the compounds of Table 1-1-Table 1-5, positive polypeptide in Table 1-11, and positive control T-118 against the RSV-A long virus strain was detected.
(§1) Human Epithelial Pharyngeal Carcinoma Cells (HEp-2) were from the American Type Culture Collection (ATCC), with a catalog number CCL-23. The cells were cultured in a DMEM culture solution in which 10% fetal bovine serum, 1% sodium pyruvate, 1% nonessential amino acids, 2 mM glutamine, 100 U/mL penicillin, and 100 μg/mL streptomycin were added. The RSV A long virus strain was from the ATCC, with a catalog number VR-26.
This study used a plaque reduction experiment to detect the in-vitro activity of a test sample against the RSV A long virus strain. The test sample and a control compound were tested at 8 concentrations in duplicated wells. The HEp-2 cells were digested with trypsin and then diluted to a concentration of 300,000 cells per milliliter by using an experimental culture solution. The diluted cells were added to a 96-well cell test board, with 100 μL per well, corresponding to 30000 cells per well. The cells were cultured overnight in a 37° C. incubator with 5% CO2. On the second day, the test sample was diluted in an experimental culture medium at a fold ratio. The sample diluted at a fold ratio and an equal volume of virus (100 PFU per well) were well mixed and incubated at 37° C. in 5% CO2 for 1 h. Then, the culture solution in the 96-well cell test board was discarded, the sample virus mixed solution (200 μL) was added to the 96-well cell culture plate, and incubated at 37° C. in 5% CO2 for 2 hours. After 2 h, the sample virus mixed solution was discarded, and 200 μL of maintenance culture medium containing 0.8% CMC and the corresponding concentration of the test sample was added. A cell control (cells, without compound treatment or viral infection) and a viral control (cell infection virus, without compound treatment) were set. The cells were cultured for 1 day in the 37° C. incubator with 5% CO2. One day after viral infection, the culture medium was discarded, the cells were fixed with 4% paraformaldehyde, and then permeabilization was performed with 0.5% Triton X-100. After the plate was washed with DPBS, an RSV-specific antibody (RSV antibody, diluted 1:3000) was added and incubated at 37° C. for 1 h. Then, a secondary antibody (donkey anti-goat IgG, diluted 1:500) and incubated at 37° C. for 1 h. The secondary antibody was discarded, a TrueBlue solution was added, dyeing was performed for 10 min; and the plate was washed with running water and then air-dried, and the number of spots in each well was counted by using a microplate imaging counter. Raw data was used for calculating the antiviral activity of the samples.
(§2) The raw data for plaque counts and cell viability tests were used for analyzing the antiviral activity and cytotoxicity of the test samples, respectively. A calculation formula was shown as follows.
% inhibition rate=100−(sample value-cell control average value)/(virus control average value-cell control average value)×100%
(§3) Non-linear fitting analysis was performed on the inhibition rate of the sample by using GraphPad Prism (version 10), so as to calculate the IC50 and CC50 values for the sample.
IC50: in an in-vitro antiviral activity experiment, IC50 represented an inhibition ability indicator of a compound to be tested against the Hep-2 cells infected by the RSV A long virus strain.

Data set [1] is described as follows: Cytotoxicity test in HEp-2 cells (CCK8 cell viability). Type of data set: cell-based. Conditions: human; HEp-2 cells, CCK8, 1 day; read-out: CC50. How it is done: as §1
A cytotoxicity test and an antiviral test were performed in parallel. The HEp-2 cells were inoculated in the microplate at a density of 30,000 cells per well, and cultured overnight in the 37° C. incubator with 5% CO2. On the next day, the diluted test sample was added. The cell control (cells, without compound treatment) and a culture solution control (culture solution only, without cell or compound treatment) were set. A final concentration of DMSO in the culture solution was 0.5%. The cells were cultured for 1 day in the 37° C. incubator with 5% CO2. Cell viability was detected by using a cell viability detection kit CCK8.
as §2
cell survival rate=(sample value-culture medium control average value)/(cell control average value-culture medium control average value)×100
as §3
CC50: in the in-vitro antiviral activity experiment, CC50 was used to measure the toxicity of the compound to be tested to the Hep-2 cells. To be precise, when the compound to be tested was at a specific concentration, 50% of the Hep-2 cells was caused to die, and this concentration was defined as the CC50. A fitting formula was log (inhibitor) vs. response-Variable slope (four parameters).

pIC50: −log10 of the molar value. Where a SMILES comes first, the peptide text is derived from it. The star is where a group is joined. X1 = CC(C)CCCC(C)C1CCC2C3CC=C4CC(OC(=O)CCC(=O)*)CCC4(C)C3CCC12C Some results are limits rather than exact numbers.

For orientation: pIC50 means the IC50 on a negative log10 scale, so that one unit is a factor of ten. For orientation: CC50 means the concentration giving 50% cytotoxicity. `CC[C@H](C)[C@H](NC(=O)[C@H](CCCCN)NC(C)=O)C(=O)N[C@@H](CCC(=O)O)C(=O)N[C@@H](CCC(=O)O)C(=O)N[C@H](C(=O)N[C@@H](CC(N)=O)C(=O)N[C@@H](CCCCN)C(=O)N[C@@H](CCCCN)C(=O)N[C@H](C(=O)N[C@@H](CCC(=O)O)C(=O)N[C@@H](CCC(=O)O)C(=O)N[C@@H](CO)C(=O)N[C@@H](CC(C)C)C(=O)N[C@@H](CCCCN)C(=O)N[C@@H](CCCCN)C(=O)N[C@H](C(=O)N[C@@H](CCC(=O)O)C(=O)N[C@@H](CCC(=O)O)C(=O)N[C@@H](CO)C(=O)N[C@@H](CC(=O)O)C(=O)N[C@@H](CCCCN)C(=O)N[C@@H](CCCCN)C(=O)N[C@@H](CC(C)C)C(=O)N[C@@H](CCC(=O)O)C(=O)N[C@@H](CCC(=O)O)C(=O)N[C@H](C(=O)N[C@@H](CC(N)=O)C(=O)N[C@@H](CCCCN)C(=O)N[C@@H](CCCCN)C(=O)N[C@@H](CC(C)C)C(=O)N[C@@H](CCC(=O)O)C(=O)N[C@@H](C)C(=O)N[C@@H](C)C(=O)N[C@@H](C)C(=O)N[C@@H](CCCCN)C(=O)N[C@@H](CCCCNC(=O)CCC(=O)OC1CCC2(C)C(=CCC3C2CCC2(C)C(C(C)CCCC(C)C)CCC32)C1)C(N)=O)C(C)C)[C@@H](C)CC)[C@@H](C)CC)C(C)C` (stereo partly shown) [Compound 10] (Ac-KIEEVNKKIEESLKKIEESDKKLEEVNKKLEAAAKK(X1)-NH2): the pIC50 with RSV A long virus strain is 7.74. In addition, the CC50 at 1 day in data set [1] is 1400 nM.

For the compound `CC[C@H](C)[C@H](NC(=O)[C@H](CO)NC(=O)[C@H](C)NC(=O)[C@H](CC(=O)O)NC(=O)[C@H](Cc1ccccc1)NC(C)=O)C(=O)N[C@@H](CCC(=O)O)C(=O)N[C@@H](CCC(=O)O)C(=O)N[C@H](C(=O)N[C@@H](CC(N)=O)C(=O)N[C@@H](CCCNC(=N)N)C(=O)N[C@@H](CCCNC(=N)N)C(=O)N[C@H](C(=O)N[C@@H](CCC(=O)O)C(=O)N[C@@H](CCC(=O)O)C(=O)N[C@@H](CO)C(=O)N[C@@H](CC(C)C)C(=O)N[C@@H](CCCNC(=N)N)C(=O)N[C@@H](CCCNC(=N)N)C(=O)N[C@H](C(=O)N[C@@H](CCC(=O)O)C(=O)N[C@@H](CCC(=O)O)C(=O)N[C@@H](CO)C(=O)N[C@@H](CC(=O)O)C(=O)N[C@@H](CCCNC(=N)N)C(=O)N[C@@H](CCCNC(=N)N)C(=O)N[C@@H](CC(C)C)C(=O)N[C@@H](CCC(=O)O)C(=O)N[C@H](C(=O)N[C@@H](CC(N)=O)C(=O)N[C@@H](CCCCN)C(=O)N[C@@H](CCCCN)C(=O)N[C@@H](C)C(=O)NCC(=O)N[C@@H](CO)C(=O)NCC(=O)N[C@@H](CO)C(=O)NCC(=O)N[C@@H](CCCCNC(=O)CCC(=O)OC1CCC2(C)C(=CCC3C2CCC2(C)C(C(C)CCCC(C)C)CCC32)C1)C(N)=O)C(C)C)[C@@H](C)CC)[C@@H](C)CC)C(C)C` (stereo partly shown) [Compound 12] (Ac-FDASIEEVNRRIEESLRRIEESDRRLEVNKKAGSGSGK(X1)-NH2), in the data set on RSV A long virus strain, the pIC50 is 7.55. Moreover, in data set [1], the CC50 at 1 day is greater than 8000 nM.

Turning to `CC[C@H](C)[C@H](NC(=O)[C@H](CO)NC(=O)[C@H](C)NC(=O)[C@H](CC(=O)O)NC(=O)[C@H](Cc1ccccc1)NC(C)=O)C(=O)N[C@@H](CCC(=O)O)C(=O)N[C@@H](CCC(=O)O)C(=O)N[C@H](C(=O)N[C@@H](CC(N)=O)C(=O)N[C@@H](CCCNC(=N)N)C(=O)N[C@@H](CCCNC(=N)N)C(=O)N[C@H](C(=O)N[C@@H](CCC(=O)O)C(=O)N[C@@H](CCC(=O)O)C(=O)N[C@@H](CO)C(=O)N[C@@H](CC(C)C)C(=O)N[C@@H](CCCNC(=N)N)C(=O)N[C@@H](CCCNC(=N)N)C(=O)N[C@H](C(=O)N[C@@H](CCC(=O)O)C(=O)N[C@@H](CCC(=O)O)C(=O)N[C@@H](CO)C(=O)N[C@@H](CC(=O)O)C(=O)N[C@@H](CCCNC(=N)N)C(=O)N[C@@H](CCCNC(=N)N)C(=O)N[C@@H](CC(C)C)C(=O)N[C@@H](CCC(=O)O)C(=O)N[C@@H](C)C(=O)N[C@@H](C)C(=O)N[C@@H](C)C(=O)N[C@@H](CCCCN)C(=O)N[C@@H](CCCCNC(=O)CCC(=O)OC1CCC2(C)C(=CCC3C2CCC2(C)C(C(C)CCCC(C)C)CCC32)C1)C(N)=O)[C@@H](C)CC)[C@@H](C)CC)C(C)C` (stereo partly shown) [Compound 19] (Ac-FDASIEEVNRRIEESLRRIEESDRRLEAAAKK(X1)-NH2), in the data set with RSV A long virus strain, the pIC50 is 7.79. Besides, the CC50 at 1 day in data set [1] is 8300 nM.

With `CC[C@H](C)[C@H](NC(=O)[C@H](CCCCN)NC(=O)[C@H](CCC(=O)O)NC(=O)[C@H](CC(C)C)NC(=O)[C@H](CO)NC(=O)[C@H](CCC(N)=O)NC(=O)[C@H](CC(N)=O)NC(=O)[C@@H](NC(=O)[C@H](CCCCN)NC(=O)[C@H](CCC(=O)O)NC(=O)[C@H](CC(N)=O)NC(=O)[C@@H](NC(=O)[C@H](CCC(N)=O)NC(=O)[C@H](CO)NC(=O)[C@H](C)NC(=O)[C@H](CC(=O)O)NC(=O)[C@H](Cc1ccccc1)NC(=O)[C@@H](NC(=O)[C@H](CC(C)C)NC(=O)[C@H](CCC(=O)O)NC(=O)[C@H](CC(=O)O)NC(=O)[C@H](Cc1ccc(O)cc1)NC(C)=O)C(C)C)C(C)C)[C@@H](C)CC)C(=O)N[C@@H](CCCNC(=N)N)C(=O)N[C@@H](CCCCN)C(=O)N[C@@H](CO)C(=O)N[C@@H](CC(=O)O)C(=O)N[C@@H](CCC(=O)O)C(=O)N[C@@H](CC(C)C)C(=O)N[C@@H](CC(C)C)C(=O)N[C@@H](Cc1c[nH]cn1)C(=O)N[C@@H](CC(N)=O)C(=O)N[C@H](C(N)=O)C(C)C` [Compound 23] (Ac-YDELVFDASQVNEKINQSLEKIRKSDELLHNV-NH2), in the data set on RSV A long virus strain, the pIC50 was 5.63. Moreover, the CC50 at 1 day in data set [1] is greater than 8000 nM.

Take `CC[C@H](C)[C@H](NC(=O)[C@H](Cc1ccccc1)NC(=O)[C@H](C)NC(=O)[C@H](CC(C)C)NC(=O)[C@H](CO)NC(=O)[C@H](CCC(N)=O)NC(=O)[C@H](CC(N)=O)NC(=O)[C@@H](NC(=O)[C@H](CCCCN)NC(=O)[C@H](CCC(=O)O)NC(=O)[C@H](CC(N)=O)NC(=O)[C@@H](NC(=O)[C@H](CCC(N)=O)NC(=O)[C@H](CCC(=O)O)NC(=O)[C@H](CC(=O)O)NC(=O)[C@H](CO)NC(C)=O)C(C)C)[C@@H](C)CC)C(=O)N[C@@H](CCCNC(=N)N)C(=O)N[C@@H](CCCNC(=N)N)C(=O)N[C@H](C(=O)N[C@@H](CCCNC(=N)N)C(=O)N[C@@H](CCCCN)C(=O)N[C@@H](CC(C)C)C(=O)N[C@@H](CC(C)C)C(=O)N[C@@H](Cc1c[nH]cn1)C(=O)N[C@@H](CC(N)=O)C(=O)N[C@@H](CCC(=O)O)C(=O)N[C@@H](C)C(=O)N[C@@H](C)C(=O)N[C@@H](C)C(=O)N[C@@H](CCCCN)C(=O)N[C@@H](CCCCNC(=O)CCC(=O)OC1CCC2(C)C(=CCC3C2CCC2(C)C(C(C)CCCC(C)C)CCC32)C1)C(N)=O)[C@@H](C)CC` (stereo partly shown) [Compound 31] (Ac-SDEQVNEKINQSLAFIRRIRKLLHNEAAAKK(X1)-NH2): the pIC50 with RSV A long virus strain was 5.65. Further, the CC50 at 1 day in data set [1] was greater than 8000 nM.

The record behind these values is patent publication US20260250325A1, “Antiviral Polypeptide Membrane Fusion Inhibitor, and Preparation Method and Application Thereof” (priority 2025, published 2026).
